Measurements as given in patent US20240360153A1 (Regeneron Pharmaceuticals, Inc., priority 2023, published 2024).
Several values for one entry are separate records, joined by “and”; a condition that tells them apart may be missing. Equal values may be shown once.

Experiments:
[1] = In vitro microsomal metabolic stability, human liver microsomes; assay type: in vitro ADME; conditions: for Remaining (T = 60 min) / Remaining (T = NCF60 min) / half-life at 1 µM: Human liver microsomes; for Remaining (T = 60 min): with NADPH; for Remaining (T = NCF60 min): without NADPH regenerating system; for Remaining (T = 60 min) / Remaining (T = NCF60 min): 60 min; for CLint scaled at 1 µM / microsomal CLint at 1 µM: human, human liver microsomes; for CLint scaled at 1 µM / microsomal CLint at 1 µM / half-life at 1 µM: pH 7.2; for half-life at 1 µM: 0.5 mg/ml protein, NADPH
Outline: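 Compounds at 1 μM incubated at 37° C with pooled CD-1 mouse or human liver microsomes (0.5 mg/mL protein) plus NADPH regenerating system in 50 mM potassium phosphate, pH 7.2, 3.3 mM MgCl2; sampled at 0–60 min, 60-min no-NADPH control. Parent loss by LC/MS/MS analyte/IS peak-area ratio, n=1.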

[2] = tested on: S6K1 (Thr389) phosphorylation (mTORC1 activity) in FKBP12 knock-out 293T cells; assay: Inhibition of S6K1 (Thr389) phosphorylation in FKBP12 knock-out 293T cells (ELISA); assay type: cell-based, human
Outline: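 CRISPR-generated FKBP12 knock-out HEK293T cells, alongside wild-type, were treated in duplicate for 2 hours at 37 °C with an 8–11-point dose range (0.001 pM–10 μM). Phospho-S6K1 Thr389 quantified by ELISA as an mTORC1 activity read-out, with DMSO as negative control.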

| Remaining (T = 60 min) [1] [%] | Remaining (T = NCF60 min) [1] [%] | CLint scaled at 1 µM [1] [mL/min/kg] | microsomal CLint at 1 µM [1] [µL/min/mg] | half-life at 1 µM [1] [min] | Compound | fold less potent compared with RAD001 ([2]; FKBP12 knock-out cells, at similar level of inhibition) | inhibition at 10 µM ([2]; Homo sapiens, HEK-293T, FKBP12 knock-out cells, 10 μM (highest tested concentration)) [%] | selectivity for FKBP12 compared with RAD001 (in words) ([2]; wild-type versus FKBP12 knock-out cells) | S6K1 inhibition achieved ([2]; FKBP12 knock-out 293T cells, concentration not given) | concentration achieving 30% inhibition of S6K1 (Thr389) phosphorylation ([2]; FKBP12 knock-out cells) [nM] | concentration achieving ~40% of S6K1 (Thr389) inhibition ([2]; FKBP12 knock-out cells) [nM] | inhibition of S6K1 (Thr389) phosphorylation in the absence of FKBP12 (in words) ([2]; FKBP12 knock-out cells) | inhibition of S6K1 phosphorylation ([2]; FKBP12 knock-out cells, 100 nM, 0.1 µM) [%] | inhibition of S6K1 (Thr389) phosphorylation ([2]; FKBP12 knock-out cells, 10 μM (highest tested concentration), 10 µM) | inhibition at 0.1 µM ([2]; Homo sapiens, HEK-293T, FKBP12 knock-out cells, 100 nM) [%] | IC50 ([2]; Homo sapiens, HEK-293T, FKBP12 knock-out 293T cells) [nM] |
| --- | --- | --- | --- | --- | --- | --- | --- | --- | --- | --- | --- | --- | --- | --- | --- | --- |
| 63.3 | 115 | 25.5 | 28.3 | 49 | COCCN(c1ccccc1)C1C[C@@H]2CC[C@@H](C)[C@@](O)(O2)C(=O)C(=O)N2CCCC[C@H]2C(=O)OC([C@H](C)CC2CC[C@@H](O)C(OC)C2)CC[C@H](C)/C=C(\C)C(O)C(OC)C(=O)[C@H](C)C[C@H](C)/C=C/C=C/C=C/1C (stereo partly drawn) [Compound 69, (3S,6S,7E,9R,10R,12R,14S,15E,17E,19E,23S,26R,27R,34aS)-9,27-dihydroxy-3-((R)-1-((1S,3R,4R)-4-hydroxy-3-methoxycyclohexyl)propan-2-yl)-10-methoxy-21-((2-methoxyethyl)(phenyl)amino)-6,8,12,14,20,26-hexamethyl-5,6,9,10,12,13,14,21,22,23,24,25,26,27,32,33,34,34a-octadecahydro-3H-23,27-epoxypyrido[2,1-c][1]oxa[4]azacyclohentriacontine-1,11,28,29(4H,31H)-tetraone] | about 3000 fold | ~30 | more selective than RAD001 |  |  |  |  |  |  |  |  |
| 2.10 | 120 | 112 | 124 | 11.1 | CO[C@H]1C[C@@H]2CC[C@@H](C)[C@@](O)(O2)C(=O)C(=O)N2CCCC[C@H]2C(=O)O[C@H]([C@H](C)C[C@@H]2CC[C@@H](OCCO)[C@H](OC)C2)CC(=O)[C@H](C)/C=C(\C)[C@@H](O)[C@@H](OC)C(=O)[C@H](C)C[C@H](C)/C=C/C=C/C=C/1C [RAD001, everolimus, reference compound] |  |  |  | about 50% | ~3.0 | 447 | inhibited the mTORC1 signaling in a dose dependent manner | ~35 | ~80% and ~70% and 42% and 45% and 58% and 73.5% and 62% and ~60% | ~30 | 31.3 |
